“And” between values parts separate entries of the source, which are not always exact repeats. Equal values may be shown once. Read-outs that look alike come from different tables or passages of the source.
Experiments:
[1] = system: NA reuptake in rat brain synaptosomes; experiment: 3H-NA reuptake by rat brain synaptosomes; format: biochemical; details: 3H-NA 10 nM, rat brain synaptosomes; read-out: NA inhibition rate % IC50
Text: At present, it is believed that absolute or relative deficiencies of the central monoamine neurotransmitters 5-hydroxytryptamine (5-HT), norepinephrine (NA) and dopamine (DA) are closely related to depression and anxiety.
Synaptosomes were separated using methods in literature to prepare brain synaptosomes. SD rats were rapidly decapitated with a small animal decapitator. After decapitation, brains were taken out quickly and precooled in an ice-water mixture, and the pia mater and vascular tissue were removed. Brain tissue was taken out. 10 times volume (ml/g) of 10 mM Tris HCl buffer (containing 0.32 M sucrose, pH 7.4) was added, an ultrasonic cell pulverizer was used for homogenization (maintaining at a low temperature), and the brain tissue was homogenized and centrifuged for 10 min (4° C., 1,000 g). After balanced centrifugation (1500 g, 10 min) at 4° C., precipitate was discarded, then supernatant was taken, and centrifugation (20000 g) was performed again for 30 min. The supernatant was discarded and the precipitate, i.e. crude extract of synaptic corpuscles, was retained. The precipitate was further suspended in 0.32 M cold sucrose solution and then carefully laid on 1.2 M and 0.8 M (10 ml each) cold sucrose gradient solutions which had been laid sequentially on the bottom of the tube, followed by balanced centrifugation (38000 g) at 4 °C for 60 min. A suspension band at the 0.8-1.2 M sucrose interface was carefully collected with a puncture needle, which was placed in 10 ml of 0.32 M cold sucrose solution and mixed well, and equilibrium centrifuged (20000 g) at 4 °C for 30 min. The precipitate was refined brain synaptosomes. […]
The percentage inhibition of isotope ligand binding by each compound was calculated according to the following equation: […]

[2] = Pharmacokinetics and absolute bioavailability in rats (LC-MS/MS); format: in vivo; details: rat; for MRT inf: read-out: MRT0-∞
Text: A LC-MS/MS method for determination of compound I-5 and compound M2 in rat plasma was established through experiments to investigate the pharmacokinetic characteristics and absolute bioavailability of compounds in rats.
20 SPF-grade SD male rats (body weight 220±20 g), purchased from Beijing Vital River Laboratory Animal Technology Co., Ltd.
• Chromatographic column: waters BEH C18 1.7 μm; 2.1×100 mm Column • Internal standard: D-I-5 (deuterated compound I-5, with the following structural formula)
20 SD rats were randomly divided into 4 groups, with 5 rats in each group. […]
50 μL plasma was taken, 50 μL D-I-5 (20 ng/mL dissolved in acetonitrile) was added, the mixture was whirled for 30 s, then 100 μL acetonitrile was added; the mixture was fully whirled for 2 min, and was centrifuged at 4° C. at 12000 r/min for 3 min, 50 μL supernatant was taken, 50 μL aqueous solution was added for dilution, followed by whirling for Imin, and 4 μL sample was injected.
The mean plasma concentration-time curves of rats after oral intragastric administration and intravenous administration were respectively shown in FIGS. 8 and 9. Data were processed using DAS 3.0 pharmacokinetic software (Chinese Professional Committee of Mathematical Pharmacology, Shanghai, China), and statistical moment parameters of the non-compartmental model were calculated, Cmax and Tmax being measured values.

[3] = male, SD, plasma, po, intragastric administration 12.5 mg/kg, n = 5
[4] = male, SD, plasma, intravenous administration 2.5 mg/kg, n = 5
[5] = male, Sprague-Dawley (SD), plasma, po, intragastric administration 12.5 mg/kg, n = 5
[6] = male, Sprague-Dawley (SD), plasma, intravenous administration 2.5 mg/kg, n = 5

IC50 [1]: 23.5 ± 3.56 nM
bioavailability ([2]; male, SD, plasma, oral, absolute bioavailability, intragastric 12.5 mg/kg vs intravenous 2.5 mg/kg, read-out: F (bioavailability, %)): 40.8%
AUC(0-t) [2, 3]: 1080 ± 373 ng·h/mL
Tmax [2, 3]: 21 min
half-life [2, 3]: 61.8 ± 20.4 min
C0 [2, 4]: 1640 ± 319 ng/mL
half-life [2, 4]: 14.4 ± 1.8 min
concentration at 0.08 h ([2]; male, SD, plasma, iv, 2.5 mg/kg, single intravenous 2.5 mg/kg, 0.08 h, read-out: Plasma concentration, Mean): 1210 ng/mL
concentration at 0.08 h ([2]; male, SD, plasma, iv, 2.5 mg/kg, single intravenous 2.5 mg/kg, 0.08 h, read-out: Plasma concentration, individual rats): 1090 ng/mL
concentration at 0.25 h ([2]; male, SD, plasma, iv, 2.5 mg/kg, single intravenous 2.5 mg/kg, 0.25 h, read-out: Plasma concentration, Mean): 639 ng/mL
concentration at 0.25 h ([2]; male, SD, plasma, iv, 2.5 mg/kg, single intravenous 2.5 mg/kg, 0.25 h, read-out: Plasma concentration, individual rats): 575 ng/mL
concentration at 0.5 h ([2]; male, SD, plasma, iv, 2.5 mg/kg, single intravenous 2.5 mg/kg, 0.50 h): 315 ng/mL
concentration at 1 h ([2]; male, SD, plasma, iv, 2.5 mg/kg, single intravenous 2.5 mg/kg, 1 h, read-out: Plasma concentration, Mean): 79 ng/mL
concentration at 2 h ([2]; male, SD, plasma, iv, 2.5 mg/kg, single intravenous 2.5 mg/kg, 2 h): 5.46 ng/mL
concentration at 3 h ([2]; male, SD, plasma, iv, 2.5 mg/kg, single intravenous 2.5 mg/kg, 3 h): 3.21 ng/mL
concentration at 0.08 h ([2]; male, SD, plasma, oral, 12.5 mg/kg, single intragastric 12.5 mg/kg, 0.08 h, read-out: Plasma concentration, Mean): 191 ng/mL
concentration at 0.25 h ([2]; male, SD, plasma, oral, 12.5 mg/kg, single intragastric 12.5 mg/kg, 0.25 h, read-out: Plasma concentration, Mean): 398 ng/mL
concentration at 0.5 h ([2]; male, SD, plasma, oral, 12.5 mg/kg, single intragastric 12.5 mg/kg, 0.50 h): 387 ng/mL
concentration at 1 h ([2]; male, SD, plasma, oral, 12.5 mg/kg, single intragastric 12.5 mg/kg, 1 h, read-out: Plasma concentration, Mean): 211 ng/mL
concentration at 1 h ([2]; male, SD, plasma, oral, 12.5 mg/kg, single intragastric 12.5 mg/kg, 1 h, read-out: Plasma concentration, individual rats): 145 ng/mL
concentration at 2 h ([2]; male, SD, plasma, oral, 12.5 mg/kg, single intragastric 12.5 mg/kg, 2 h): 132 ng/mL
concentration at 3 h ([2]; male, SD, plasma, oral, 12.5 mg/kg, single intragastric 12.5 mg/kg, 3 h): 134 ng/mL
concentration at 4 h ([2]; male, SD, plasma, oral, 12.5 mg/kg, single intragastric 12.5 mg/kg, 4 h, read-out: Plasma concentration, Mean): 164 ng/mL
concentration at 6 h ([2]; male, SD, plasma, oral, 12.5 mg/kg, single intragastric 12.5 mg/kg, 6 h): 86.7 ng/mL
concentration at 8 h ([2]; male, SD, plasma, oral, 12.5 mg/kg, single intragastric 12.5 mg/kg, 8 h, read-out: Plasma concentration, Mean): 2.07 ng/mL
concentration at 8 h ([2]; male, SD, plasma, oral, 12.5 mg/kg, single intragastric 12.5 mg/kg, 8 h, read-out: Plasma concentration, individual rats): 5.38 ng/mL
Cmax ([2]; male, SD, plasma, po, 12.5 mg/kg, intragastric administration 12.5 mg/kg, n = 5, read-out: Cmax): 425 ± 137 ng/mL
AUC(0-inf) [2, 5]: 1120 ± 367 ng·h/mL
AUC(0-t) [2, 5]: 1080 ± 373 ng·h/mL
MRT inf [2, 5]: 151 ± 36.6 min
AUC(0-inf) [2, 6]: 532 ± 127 ng·h/mL
AUC(0-t) [2, 6]: 529 ± 130 ng·h/mL
MRT inf [2, 6]: 18.6 ± 3.6 min
Cmax ([2]; intragastric administration 12.5 mg/kg, n = 5, 12.5 mg/kg): 425.47 ± 136.97 ng/mL
Plasma concentration, individual rats ([2]; single intragastric 12.5 mg/kg, 8 h): BLOQ (3×) and 3.64 ng/mL
Plasma concentration, individual rats ([2]; single intravenous 2.5 mg/kg, 4 h): BLOQ
Plasma concentration, individual rats ([2]; single intravenous 2.5 mg/kg, 6 h): BLOQ
Plasma concentration, individual rats ([2]; single intravenous 2.5 mg/kg, 8 h): BLOQ
Structure (SMILES): NC(=O)/C=C/c1cc2c(c(C(F)(F)F)c1)OCO2 [Compound M2]
Plasma concentration, individual rats ([2]; single intragastric 12.5 mg/kg, 0.08 h): 78.15 ng/mL and 127.05 ng/mL and 78.40 ng/mL and 240.77 ng/mL and 433.00 ng/mL
Plasma concentration, individual rats ([2]; single intragastric 12.5 mg/kg, 0.25 h): 213.75 ng/mL and 487.46 ng/mL and 212.80 ng/mL and 494.43 ng/mL and 582.67 ng/mL
Plasma concentration, individual rats ([2]; single intragastric 12.5 mg/kg, 0.50 h): 270.87 ng/mL and 411.67 ng/mL and 291.90 ng/mL and 416.38 ng/mL and 542.56 ng/mL
Plasma concentration, individual rats ([2]; single intragastric 12.5 mg/kg, 1 h): 184.82 ng/mL and 165.92 ng/mL and 270.26 ng/mL and 288.12 ng/mL
Plasma concentration, individual rats ([2]; single intragastric 12.5 mg/kg, 2 h): 90.66 ng/mL and 71.40 ng/mL and 131.47 ng/mL and 231.27 ng/mL and 133.28 ng/mL
Plasma concentration, individual rats ([2]; single intragastric 12.5 mg/kg, 3 h): 175.71 ng/mL and 60.26 ng/mL and 194.74 ng/mL and 114.91 ng/mL and 122.55 ng/mL
Plasma concentration, individual rats ([2]; single intragastric 12.5 mg/kg, 4 h): 268.66 ng/mL and 107.99 ng/mL and 188.58 ng/mL and 66.64 ng/mL and 188.12 ng/mL
Plasma concentration, individual rats ([2]; single intragastric 12.5 mg/kg, 6 h): 57.55 ng/mL and 48.74 ng/mL and 11.84 ng/mL and 15.99 ng/mL and 299.46 ng/mL
Plasma concentration, individual rats ([2]; single intravenous 2.5 mg/kg, 0.08 h, 2.5 mg/kg): 1221.94 ng/mL and 1589.64 ng/mL and 991.98 ng/mL and 1170.61 ng/mL
Plasma concentration, individual rats ([2]; single intravenous 2.5 mg/kg, 0.25 h, 2.5 mg/kg): 742.62 ng/mL and 807.81 ng/mL and 497.57 ng/mL and 574.42 ng/mL
Plasma concentration, individual rats ([2]; single intravenous 2.5 mg/kg, 0.50 h, 2.5 mg/kg): 281.81 ng/mL and 435.1 ng/mL and 406.94 ng/mL and 201.98 ng/mL and 248.89 ng/mL
Plasma concentration, individual rats ([2]; single intravenous 2.5 mg/kg, 1 h, 2.5 mg/kg): 74.30 ng/mL and 130.96 ng/mL and 92.59 ng/mL and 39.74 ng/mL and 57.32 ng/mL
Plasma concentration, individual rats ([2]; single intravenous 2.5 mg/kg, 2 h, 2.5 mg/kg): 4.62 ng/mL and 12.27 ng/mL and 2.23 ng/mL and BLOQ and 2.72 ng/mL
Plasma concentration, individual rats ([2]; single intravenous 2.5 mg/kg, 3 h, 2.5 mg/kg): 2.035 ng/mL and 4.403 ng/mL and BLOQ (3×)
